Test results taken from ChEMBL document CHEMBL1201862, “PubChem BioAssay data set” (2004).
Active and inactive are the calls of the source.

Assays:
[1] = NIH3T3 cell viability loss – ATP luminescence, mouse fibroblasts, counter-screen, dose response (AID 2010); format: functional, cell-based;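 note: cells exposed to compound for about 90 hours before reading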
[2] = Trypanosoma cruzi growth suppression in host cells – NIH3T3 host cells, beta-gal luminescence, confirmation (AID 2044); format: functional, cell-based;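 note: intracellular parasites grown in NIH/3T3 mouse fibroblasts as host cells; luminescent beta-galactosidase reporter signal from transgenic T. cruzi replicating inside host cells; inhibitors lower the luminescence signal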
[3] = target: T1, Heat shock factor protein 1 (Mus musculus, UniProt P38532); test: decrease of HSF1-responsive luciferase luminescence – cell-based, NIH3T3, dose retest, confirmation (AID 2382); format: functional;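 note: NIH3T3 fibroblasts with HSF1-driven luciferase reporter stressed by proteasome inhibitor MG132; luminescence from HSF1-driven luciferase expression after 8 hours of MG132 stress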
T1 sequence (P38532 whole entry): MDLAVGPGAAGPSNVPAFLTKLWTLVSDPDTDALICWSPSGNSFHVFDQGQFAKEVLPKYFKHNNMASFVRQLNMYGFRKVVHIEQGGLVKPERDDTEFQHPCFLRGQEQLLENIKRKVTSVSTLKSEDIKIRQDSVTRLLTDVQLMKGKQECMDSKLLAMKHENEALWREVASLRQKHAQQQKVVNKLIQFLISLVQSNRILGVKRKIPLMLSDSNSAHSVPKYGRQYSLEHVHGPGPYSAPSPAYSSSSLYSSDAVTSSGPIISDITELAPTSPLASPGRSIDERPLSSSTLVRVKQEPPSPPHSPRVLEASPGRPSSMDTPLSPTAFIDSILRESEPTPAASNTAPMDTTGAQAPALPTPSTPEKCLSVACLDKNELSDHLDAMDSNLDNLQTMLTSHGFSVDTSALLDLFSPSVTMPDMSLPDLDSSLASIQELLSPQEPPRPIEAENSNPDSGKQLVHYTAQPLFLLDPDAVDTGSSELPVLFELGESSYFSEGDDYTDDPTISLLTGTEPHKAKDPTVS

[4] = luciferase reporter signal suppression in cells – H4 neuroglioma cells, luminescence, dose response (AID 1990); format: functional, cell-based
[5] = alpha-synuclein stem-loop luciferase translation blockers – H4 neuroglioma cells, luminescence, confirmation (AID 1988); format: functional, cell-based
[6] = Luminescence Cell-Based Dose Response HTS to Identify Inhibitors of 5'UTR Stem-Loop Driven Prion Protein mRNA Translation in H4 Neuroglioblastoma Cells. [Related pubchem assays: 1827 (Project Summary), 1813 (Primary HTS)]; format: functional
[7] = target: FAD-linked sulfhydryl oxidase ALR (Homo sapiens, UniProt P55789); test: ALR-catalysed DTT oxidation blockers – biochemical, H2O2 detection, luminescence, cherry-pick, dose response (AID 493248)
Cytochrome P450 2C19 = Cytochrome P450 2C19 (Homo sapiens, UniProt P33261); test: Cytochrome panel assay with activity outcomes. Panel member name: p450-cyp2c19 Compounds with AC50 equal or less than 10 uM are considered active; format: functional
[8] = NIH-3T3 fibroblast cytotoxicity, dose response, cytotoxicity control, cell-based, fluorescence, Alamar Blue, secondary assay (AID 2327); format: functional;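 note: NIH-3T3 mouse fibroblasts cultured with fluconazole at 8 µg/mL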
[9] = fluconazole-exposed Candida albicans growth modulators – fluorescence, retest, confirmation (AID 2467); format: functional, cell-based
INS1 = test: INS-1E survival protection against cytokine death – cell-based, luminescence, retest, dose response (AID 449756); format: functional; settings: Rattus norvegicus;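 note: cell death triggered by IL-1 beta plus TNF-alpha plus IFN-gamma mixture; protective hits raise ATP signal compared with cytokine alone wells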

Sequence of FAD-linked sulfhydryl oxidase ALR (P55789 whole entry): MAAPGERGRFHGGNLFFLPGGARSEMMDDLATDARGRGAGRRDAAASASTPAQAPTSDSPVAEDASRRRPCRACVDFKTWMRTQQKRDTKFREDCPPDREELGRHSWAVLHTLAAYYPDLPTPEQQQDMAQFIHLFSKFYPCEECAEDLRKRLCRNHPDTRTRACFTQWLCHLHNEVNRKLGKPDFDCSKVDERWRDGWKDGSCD
Sequence of Cytochrome P450 2C19 (P33261 whole entry): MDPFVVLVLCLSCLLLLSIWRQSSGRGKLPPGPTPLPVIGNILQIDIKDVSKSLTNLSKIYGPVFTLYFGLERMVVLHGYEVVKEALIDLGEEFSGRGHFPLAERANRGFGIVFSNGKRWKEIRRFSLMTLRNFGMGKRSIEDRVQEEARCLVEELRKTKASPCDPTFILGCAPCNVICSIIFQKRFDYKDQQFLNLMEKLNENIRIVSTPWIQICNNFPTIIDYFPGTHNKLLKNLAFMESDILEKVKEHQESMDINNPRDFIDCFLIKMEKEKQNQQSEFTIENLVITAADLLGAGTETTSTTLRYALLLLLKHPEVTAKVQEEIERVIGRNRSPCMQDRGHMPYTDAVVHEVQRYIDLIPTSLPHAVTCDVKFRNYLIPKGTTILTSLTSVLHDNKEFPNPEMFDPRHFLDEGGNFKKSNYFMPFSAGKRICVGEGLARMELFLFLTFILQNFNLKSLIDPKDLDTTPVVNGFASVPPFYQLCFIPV

## O=C(CSc1oc(-c2cccs2)nc1S(=O)(=O)c1ccccc1)NC1CCCCC1
[1]
  EC50: > 60 µM (inconclusive)
[2]
  EC50: 1.13 µM (active)

## COc1ccc(CNC(=O)OCCN2CCN(S(=O)(=O)c3ccc(C)cc3)CCC2=O)cc1
[3]
  EC50: > 195 µM (not active)

## COc1ccccc1C(=O)NCCn1cc(SCC(=O)Nc2cc(C)on2)c2ccccc21
[4]
  EC50: 16.2 µM (active)
[5]
  EC50: > 120 µM (not active)
[6]
  EC50: > 120 µM (not active)

## O=C(NCC(c1ccco1)N1CCc2ccccc21)c1ccccc1F (configuration not stated)
[7]
  AC50: 1.67 µM (active)

## CN1C2CCC1CC(OC(=O)c1ccc(Cl)cc1)C2 (configuration not stated)
Cytochrome P450 2C19; read-out: AC50
  AC50: 5.62 µM (inconclusive)

## Cc1cc(C(=O)N2CCCC(Nc3ccc(C(C)C)cc3)C2)nn1C (configuration not stated)
[7]
  AC50: 6.69 µM (active)

## COc1ccc(/C=C2\SC(=S)N(CCCC(=O)N3CCN(C)CC3)C2=O)cc1
[1]
  EC50: 8.7 µM (active)
[2]
  EC50: 1.06 µM (active)

## S=C(Nc1ccc(Cl)cc1)Nc1ccc2c(c1)OCCO2
[8]
  EC50: > 150 µM (inactive)
[9]
  EC50: > 38 µM (not active)

## c1ccc(-n2ncc3c(NCCCN4CCOCC4)ncnc32)cc1
Cytochrome P450 2C19; read-out: AC50
  AC50: 15.8 µM (inconclusive)

## O=C(N/N=C/c1ccccc1F)NC12CC3CC(CC(C3)C1)C2
[1]
  EC50: > 30 µM (not active)
[2]
  EC50: 2.78 µM (active)

## Nc1ccc(Cl)c(S(=O)(=O)Nc2ccc(Cl)cc2)c1
[1]
  EC50: > 60 µM (not active)
[2]
  EC50: 39.7 µM (active)

## Oc1[nH]c2ccc(Br)cc2c1N=Nc1ccc(C(F)(F)F)cn1
[1]
  EC50: > 60 µM (not active)
[2]
  EC50: 2.33 µM (active)

## Cc1cccc(N2CCN(C(=O)NC3CCCCC3)CC2C)c1 (configuration not stated)
[7]
  AC50: 6.6 µM (active)

## Cc1ccc(-c2nc(-c3cccnc3)sc2CC(=O)O)cc1
[7]
  AC50: 3.45 µM (active)

## CS(=O)(=O)Nc1nc2ccccc2[nH]1
[3]
  EC50: > 195 µM (not active)

## CCc1ccc(C(=O)NNc2cc(Cl)ccc2Cl)cc1
INS1
  AC50: 6.64 µM (active)

## c1ccc(CNc2ncnc3sc4c(c23)CCCC4)nc1
[7]
  AC50: 37.2 µM (active)

## C=CCn1c(S)nnc1-c1cccn(Cc2ccccc2)c1=O
Cytochrome P450 2C19; read-out: AC50
  AC50: 25.1 µM (inconclusive)
[4]
  EC50: > 120 µM (not active)
[5]
  EC50: > 120 µM (not active)
[6]
  EC50: 27.4 µM (active)

## COc1c(Cl)cc(Cl)cc1CNCCNCC(C)O (configuration not stated)
Cytochrome P450 2C19; read-out: AC50
  AC50: 14.1 µM (inconclusive)

## Cc1ccc(S(=O)(=O)CC(=O)Nc2ccc(S(=O)(=O)Nc3onc(C)c3C)cc2)cc1
[3]
  EC50: > 195 µM (not active)

## CCN(CC)c1ccc(NC(=O)C2CC3CCC2C3)cc1 (configuration not stated)
[7]
  AC50: 0.431 µM (active)

## CCOC(=O)c1cc(-c2ccccc2)sc1NC(=O)CN1C(=O)NC(CC)(c2ccccc2)C1=O (configuration not stated)
[1]
  EC50: > 60 µM (inconclusive)
[2]
  EC50: 2.17 µM (active)

## CC1=NN(c2ccccc2)C(=O)C1/C=C1/C(=O)NC(=O)N(c2cc(C)cc(C)c2)C1=O (configuration not stated)
[7]
  AC50: 1.76 µM (active)

## Cc1ccc(S(=O)(=O)CCC(=O)Nc2ccc(Br)cc2)cc1
[3]
  EC50: > 195 µM (not active)

## C1=C(c2ccccc2)CCN(c2[nH]cnc3ncnc2-3)C1
[3]
  EC50: > 195 µM (not active)

## COc1ccccc1N1CCN(C(S)=Nc2ccc(F)cc2)CC1
[3]
  EC50: 54.6 µM (active)

## O=C(Nc1ccc(-c2nc3ccccc3s2)cc1)C1=COCCO1
[5]
  EC50: 2.95 µM (active)
[6]
  EC50: 5.8 µM (active)

## O=C(CCn1c(=S)oc2ccccc21)NC1CCCCCC1
[3]
  EC50: > 195 µM (not active)

## Cn1c(=O)[nH]c(=O)c2c1nc(CN1CCOCC1)n2CCCO
Cytochrome P450 2C19
  AC50: inconclusive

## CC(=O)Nc1ccc2c(c1)OCCO2
Cytochrome P450 2C19; read-out: AC50
  AC50: 17.8 µM (inconclusive)

## Cc1cccc(C(=O)NC(=S)N2CCN(c3ccc([N+](=O)[O-])cc3)CC2)c1
[3]
  EC50: > 195 µM (not active)

## COc1ccc(CNC(=O)c2ccc(CS(=O)(=O)c3ccc(Br)cc3)o2)cc1
[3]
  EC50: > 195 µM (not active)

## COC(=O)C1=CN(Cc2ccc(OC)c(OC)c2)C=C(C(=O)OC)C1c1cccc(OC)c1OC
[1]
  EC50: > 60 µM (not active)
[2]
  EC50: 0.384 µM (active)
